The values below come from patent publication US6958360B2, “Attractant pheromone for the Colorado potato beetle” (The United States of America as represented by the …, priority 2001, dated 2005).

Entries after “also recorded” stand apart in the source; their conditions may differ. Marks after values point to notes of the source that are not given here.

Experiment [1] deals with antennal olfactory receptors (short sensillum on the penultimate antennal segment of a CPB). As to the kind of experiment: Single sensillum (single cell) recording of receptor neuron response. The arrangement: species or system Leptinotarsa decemlineata. The note with it: 100 ng source load; solvent control 8. The method, then:
Sensitivity of antennal olfactory receptors for the racemate and optical isomers of the male specific compound were tested using coupled GC/EAD and single sensillum recording techniques. GC/EAD tests involved injection of 1 μl of serial dilutions of 3,7-dimethyl-2-oxo-oct-6-ene-1,3-diol (CPB I).

For experiment [2], the system named is Colorado potato beetle (CPB). As to the kind of experiment: Open Y-track olfactometer behavioral bioassay, optical isomers vs solvent control. The class given is in vivo, Leptinotarsa decemlineata. The note with it: for orientation preference (in words): serial source loads 0.0001 to 1.0 μg vs solvent control, male and female. How it is done:
Chemical blends and plant foliage were tested for behavioral activity in an open Y-track olfactometer modified after Visser and Piron (Visser, J. H., and P. G. M. Piron, Proceedings of the Section Experimental and Applied Entomology of the Netherlands Entomological Society Amsterdam, 9: 41-46 (1998)) and described in detail by Dickens (Dickens, J. C., Agric. Forest Entomol., 1: 47-54 (1999)). In brief, odorous stimuli emanating from volatile collections from CPB males feeding on potato plants or the male-specific compound on filter paper discs (2.5 cm dia.; Whatman™ #1 filter paper) in Ehrlenmeyer flasks were delivered to either side of the device. Hydrocarbon free air that was humidified by passing through distilled water carried the odor molecules to either arm of the bioassay apparatus. Treatments were replenished after 30 min of use in the bioassay apparatus. Airflow was regulated to 1 l/min by flowmeters. Experiments were conducted in a darkened room at 22° C. in which the only source of light was that associated with the bioassay device. For all bioassays, at least 20 males and 20 females were tested.
Volatile collections from male CPB feeding for three hours on a potato plant and serial dilutions of the male specific compound were tested as 10 μl aliquots placed on a filter paper disc as described above. The male specific compound was tested at 1.0 μg/10 μl solvent (hexane) and in a dilution series ranging from 0.0001 to 1.0 μg/10 μl solvent.
Prior to testing at age 7-14 days, unmated insects were held individually in 5.5 oz. cups, provided with fresh potato foliage on a continuous basis, and maintained under incubator conditions of a 16:8 light:dark cycle, 80-90% R.H., and “day” and “night” temperatures of 25° C. and 23° C., respectively. On the day of testing, insects were transferred to smaller 1 oz. cups and held for 1-3 hrs with moist filter paper but no foliage, then held in darkness for an additional 1-2 hrs.
Individual testing in a darkened room at 22° C. began by allowing the beetle to climb onto or be placed approximately midway up the vertical rod of the “T.” In response to a positive phototaxis to light from a flashlight mounted above the “T” and negative geotaxis, the beetles generally climbed upward. Once the insect began waving its antennae, presumably in response to test odors, its forward progress continued. Orientation was scored as soon as the test insect had moved completely from the horizontal to one of the 45 extension arms of the bioassay device. Following each test, the bioassay device was cleaned with acetone to remove contamination left by the insect. For any given series of tests, approximately half were done with the treatment and associated test apparatus on one side, and half were done with them on the other side.
Laboratory bioassays were assessed for significant differences by the hypothesis on binomial proportions based on the standard normal approximation (Brase, C. H., and C. P. Brase (1983), Understanding Statistics, Lexington, Mass.: D. C. Heath).

Experiment [3] has as its system Colorado potato beetle (CPB). As to the kind of experiment: Open Y-track olfactometer laboratory behavioral bioassay, pheromone and plant volatile blends. The class given is in vivo, Leptinotarsa decemlineata. The method, then:
Insects: All life stages were reared on potted potato plants kept in screened cages inside incubators set for 16L:8D, 25° C. during photophase, 23° C. during scotophase, and 80% R.H. Upon emergence adult beetles were kept individually in plastic cups with perforated plastic snap-on lids, and provided with clean pieces of paper toweling and potato foliage daily.
Bioassay apparatus and protocol: Stock solutions of test compounds, e.g. (S)-CPB I, and individual plant volatiles 2-phenylethanol, nonanal and (±)-linalool, were prepared at 10 μg/μl in hexane. Serial dilutions were made to obtain a test solution of 0.1 μg/μl. Each bioassay treatment of CPB I used a 10 μl aliquot of test solution, or a total of 1 μg of neat material. A […] stock solution of a 3-component blend of selected potato volatiles, (Z)-3-hexenyl acetate, linalool, and methyl salicylate, was prepared as follows: 8.3 μl of each was added to 975 μl of mineral oil, creating a solution of 25 μg of blend components/μl. This stock solution was diluted to obtain a solution of 2.5 μg of blend components/μl. Each bioassay treatment of blend used a 20 μl aliquot of test solution, or a total of 50 μg (16.67 μg/component) of the components.
Prior to testing at age 7-14 days, unmated insects were held individually in 5.5 oz. cups, provided with fresh potato foliage on a continuous basis, and maintained under incubator conditions of 16L:8D, 80-90% R.H., and “day” and “night” temperatures of 25° C. and 23° C., respectively. On the day of testing, insects were transferred to smaller 1 oz. cups and held for 1-3 hrs with moist filter paper but no foliage, then held in darkness for an additional 1-2 hrs.
Individual chemicals and chemical blends were tested for activity in an open Y-track olfactometer modified after Visser and Piron (1998) and described in detail by Dickens (1999; 2000; and Dickens, J. C., et al., Breaking a paradigm: male-produced aggregation pheromone for Colorado potato beetle. Journal of Experimental Biology, 205: 1925-1933 (2002)). In brief, odorous stimuli emanating from synthetic blends on filter paper discs (2.5 cm dia.; Whatman™ #1 filter paper) in 500 ml Ehrlenmeyer flasks were delivered to either side of the device. Test odorants were pipetted onto 3-cm diam. filter paper disks, which were then transferred, using long forceps, into the Erlenmeyer flasks used in the assay. If only a single test solution were being used per treatment, it was placed in the center of the filter paper; if 2 test solutions were being used per treatment, the mineral oil solution was placed in the center, and the hexane solution was spotted around the edge of the filter paper disk. Treatments were replaced after 30 minutes of testing in order to minimize variation in odor concentrations. The location of the chemical blend was switched from one side of the bioassay apparatus to the other side midway through each run in order to avoid bias not associated with the experimental treatment. Hydrocarbon free air that was humidified by passing through distilled water carried the odor molecules to either arm of the bioassay apparatus. Airflow was regulated to 1 l/min by flow meters. Experiments were conducted in a darkened room at 22° C. in which the only source of light was that associated with the bioassay device. For all bioassays at least 40 adults (20 males and 20 females) were tested. Orientation was scored as soon as the test insect had moved completely from the horizontal to one of the 45° angle extension arms of the bioassay device. Following each test, the bioassay device was cleaned with acetone to remove contamination left by the insect.
Statistical analysis: Laboratory bioassays were assessed for significant differences by the hypothesis on binomial proportions based on the standard normal approximation (Brase and Brase, 1983).

In the case of `CC(C)=CCC[C@](C)(O)C(=O)CO` [(S)-CPB I, (S)-3,7-dimethyl-2-oxo-oct-6-ene-1,3-diol], the “action potentials during 500 msec following the initial phasic increase” value in experiment [1] is given as 25 action potentials. The individuals attracted in experiment [2] (both sexes, from threshold through highest source load tested (1 μg)) is reported as 80% to 90. In addition, the “behavioral threshold, females” value in experiment [2] (female CPB, vs solvent control) came to 0.01 μg source load. For the same compound, the “behavioral threshold, males” value in experiment [2] (male CPB, vs solvent control) is given as 0.001 μg source load. In experiment [2], the “orientation preference (in words)” value is “attractive”. Also, in experiment [2] (listed as (S)-enantiomer), the “orientation preference (in words)” value is “oriented preferentially”. In experiment [3] (B = Control (solvent)), the “Female % to A.” value came out at 90%**, the “Male % to A.” value turned out to be 90%** and the “Total % to A.” value was 90%**. For the same compound, in experiment [3] (B = Plant blend), the “Female % to A.” value is 50%, the “Male % to A.” value came out at 50% and the “Total % to A.” value stood at 50%. Moreover, the “attraction / preference (in words)” value in experiment [3] (comparator as in the treatment pair of Table 2) is “attracted both male and female beetles; also recorded: no preference was shown for either attractant”.
